Measured values published in PubChem BioAssay AID1259407 (Chemical Carcinogenesis Research Information System (CCRIS), 2018).
Calls of active or inactive are those of the source. The rule behind the calls is not given here.

Tested on: CCRIS mutagenicity, Ames/micronucleus/aberration tests
Assay: CCRIS mutagenicity studies
[1] = Test System: AMES SALMONELLA TYPHIMURIUM, Strain/Indicator: TA100, Metabolic Activation: NONE, Method: STANDARD PLATE
[2] = Test System: MOUSE LYMPHOMA, Strain/Indicator: L5178Y (TK+/TK-), Metabolic Activation: NONE, Method: SUSPENSION/PLATE
[3] = Test System: MOUSE LYMPHOMA, Strain/Indicator: L5178Y (TK+/TK-), Metabolic Activation: RAT, LIVER, S-9, AROCLOR 1254, Method: SUSPENSION/PLATE
[4] = Test System: AMES SALMONELLA TYPHIMURIUM, Strain/Indicator: TA98, Metabolic Activation: NONE, Method: PREINCUBATION
[5] = Test System: AMES SALMONELLA TYPHIMURIUM, Strain/Indicator: TA98, Metabolic Activation: NONE, Method: STANDARD PLATE
[6] = Test System: AMES SALMONELLA TYPHIMURIUM, Strain/Indicator: TA98, Metabolic Activation: S-9, Method: STANDARD PLATE
[7] = Test System: AMES SALMONELLA TYPHIMURIUM, Strain/Indicator: TA100, Metabolic Activation: RAT, LIVER, S-9, AROCLOR 1254, Method: STANDARD PLATE
[8] = Test System: AMES SALMONELLA TYPHIMURIUM, Strain/Indicator: TA100, Metabolic Activation: S-9, Method: STANDARD PLATE

`ClC/C=C\CCl` was tested, and the mutagenic call (Test System: AMES SALMONELLA TYPHIMURIUM, Strain/Indicator: TA98, Metabolic Activation: HAMSTER, LIVER, S-9, AROCLOR 1254 (10%), Method: STANDARD PLATE) was “active; positive”, the mutagenic call (Test System: AMES SALMONELLA TYPHIMURIUM, Strain/Indicator: TA100, Metabolic Activation: HAMSTER, LIVER, S-9, AROCLOR 1254 (10%), Method: STANDARD PLATE) was “active; positive” and the mutagenic call [1] was “active; positive”. The mutagenic call (Test System: AMES SALMONELLA TYPHIMURIUM, Strain/Indicator: TA100, Metabolic Activation: RAT, LIVER, S-9, AROCLOR 1254 (10%), Method: STANDARD PLATE) was “active; positive”, the mutagenic call [2] was “active; positive. reevaluation of results: positive” and the mutagenic call [3] was “active; positive. reevaluation of results: positive”.

In the case of `CCC1(c2ccccc2)C(=O)NC(=O)NC1=O`, the mutagenic call (Test System: AMES SALMONELLA TYPHIMURIUM, Strain/Indicator: TA97, Metabolic Activation: HAMSTER LIVER S-9, AROCLOR 1254 (10%), Method: PREINCUBATION) was “inactive; negative”, the mutagenic call (Test System: AMES SALMONELLA TYPHIMURIUM, Strain/Indicator: TA97, Metabolic Activation: NONE, Method: PREINCUBATION) was “inactive; negative” and the mutagenic call (Test System: AMES SALMONELLA TYPHIMURIUM, Strain/Indicator: TA97, Metabolic Activation: NONE, Method: STANDARD PLATE) was “inactive; negative”. For the same compound, the mutagenic call (Test System: AMES SALMONELLA TYPHIMURIUM, Strain/Indicator: TA97, Metabolic Activation: RAT LIVER S-9, AROCLOR 1254 (10%), Method: PREINCUBATION) was “inactive; negative”, the mutagenic call (Test System: AMES SALMONELLA TYPHIMURIUM, Strain/Indicator: TA97, Metabolic Activation: S-9, Method: STANDARD PLATE) was “inactive; negative” and the mutagenic call (Test System: AMES SALMONELLA TYPHIMURIUM, Strain/Indicator: TA98, Metabolic Activation: HAMSTER LIVER S-9, AROCLOR 1254 (10%), Method: PREINCUBATION) was “inactive; negative”. The mutagenic call [4] was “inactive; negative”, the mutagenic call [5] was “inactive; negative” and the mutagenic call (Test System: AMES SALMONELLA TYPHIMURIUM, Strain/Indicator: TA98, Metabolic Activation: RAT LIVER S-9, AROCLOR 1254 (10%), Method: PREINCUBATION) was “inactive; negative”. For the same compound, the mutagenic call (Test System: AMES SALMONELLA TYPHIMURIUM, Strain/Indicator: TA98, Metabolic Activation: RAT, LIVER, S-9, AROCLOR 1254, Method: STANDARD PLATE) was “inactive; negative”, the mutagenic call [6] was “inactive; negative” and the mutagenic call (Test System: AMES SALMONELLA TYPHIMURIUM, Strain/Indicator: TA100, Metabolic Activation: HAMSTER LIVER S-9, AROCLOR 1254 (10%), Method: PREINCUBATION) was “inactive; negative”. For the same compound, the mutagenic call (Test System: AMES SALMONELLA TYPHIMURIUM, Strain/Indicator: TA100, Metabolic Activation: NONE, Method: PREINCUBATION) was “inactive; negative”, the mutagenic call [1] was “inactive; negative” and the mutagenic call (Test System: AMES SALMONELLA TYPHIMURIUM, Strain/Indicator: TA100, Metabolic Activation: RAT LIVER S-9, AROCLOR 1254 (10%), Method: PREINCUBATION) was “inactive; negative”. For the same compound, the mutagenic call [7] was “inactive; negative”, the mutagenic call [8] was “inactive; negative” and the mutagenic call (Test System: AMES SALMONELLA TYPHIMURIUM, Strain/Indicator: TA102, Metabolic Activation: NONE, Method: STANDARD PLATE) was “inactive; negative”. The mutagenic call (Test System: AMES SALMONELLA TYPHIMURIUM, Strain/Indicator: TA102, Metabolic Activation: S-9, Method: STANDARD PLATE) was “inactive; negative”, the mutagenic call (Test System: AMES SALMONELLA TYPHIMURIUM, Strain/Indicator: TA1535, Metabolic Activation: HAMSTER LIVER S-9, AROCLOR 1254 (10%), Method: PREINCUBATION) was “inactive; negative” and the mutagenic call (Test System: AMES SALMONELLA TYPHIMURIUM, Strain/Indicator: TA1535, Metabolic Activation: NONE, Method: STANDARD PLATE) was “active; positive”. For the same compound, the mutagenic call (Test System: AMES SALMONELLA TYPHIMURIUM, Strain/Indicator: TA1535, Metabolic Activation: RAT LIVER S-9, AROCLOR 1254 (5 OR 10%), Method: PREINCUBATION) was “inactive; negative”, the mutagenic call (Test System: AMES SALMONELLA TYPHIMURIUM, Strain/Indicator: TA1535, Metabolic Activation: RAT, LIVER, S-9, AROCLOR 1254, Method: STANDARD PLATE) was “inactive; negative” and the mutagenic call (Test System: AMES SALMONELLA TYPHIMURIUM, Strain/Indicator: TA1537, Metabolic Activation: NONE, Method: STANDARD PLATE) was “inactive; negative”. For the same compound, the mutagenic call (Test System: AMES SALMONELLA TYPHIMURIUM, Strain/Indicator: TA1537, Metabolic Activation: RAT, LIVER, S-9, AROCLOR 1254, Method: STANDARD PLATE) was “inactive; negative”, the mutagenic call (Test System: AMES SALMONELLA TYPHIMURIUM, Strain/Indicator: TA1538, Metabolic Activation: NONE, Method: STANDARD PLATE) was “inactive; negative” and the mutagenic call (Test System: AMES SALMONELLA TYPHIMURIUM, Strain/Indicator: TA1538, Metabolic Activation: RAT, LIVER, S-9, AROCLOR 1254, Method: STANDARD PLATE) was “inactive; negative”. The mutagenic call (Test System: CHINESE HAMSTER V-79, Strain/Indicator: V-79/6-THIOGUANINE, Metabolic Activation: NONE, Method: REPLATING) was “active; positive”, the mutagenic call (Test System: MOUSE LYMPHOMA, Strain/Indicator: L5178Y (TK+/-)/TRIFLUROTHYMIDINE, Metabolic Activation: NONE, Method: SUSPENSION/PLATE) was “inactive; negative” and the mutagenic call [2] was “inactive; negative”. For the same compound, the mutagenic call [3] was “active; positive”, the mutagenic call (Test System: MOUSE LYMPHOMA, Strain/Indicator: L5178Y (TK+/TK-), Metabolic Activation: RAT, LIVER, S-9, Method: SUSPENSION/PLATE) was “inactive; negative” and the mutagenic call (Test System: UDS RAT HEPATOCYTES, Strain/Indicator: BROMODEOXYURIDINE INCORP, Metabolic Activation: NONE, Method: FLOW CYTOMETRIC ANALYSIS) was “inactive; negative”. For the same compound, the mutagenic call (Test System: UDS RAT HEPATOCYTES, Strain/Indicator: THY INCORP, Metabolic Activation: NONE, Method: AUTORADIOGRAPHY) was “inactive; negative” and the mutagenic call (Test System: UDS RAT HEPATOCYTES, Strain/Indicator: THY INCORP, Metabolic Activation: NONE, Method: LIQUID SCINTILLATION COUNTING) was “inactive; negative”.

`O=C1C=Cc2c(ccc3c2ccc2ccccc23)C1=O` was tested, and the mutagenic call [5] was “inactive; negative” and the mutagenic call [7] was “inactive; negative”.

`Nc1ccc(-c2ccc(N)c(F)c2)cc1F` was tested, and the mutagenic call (Test System: AMES SALMONELLA TYPHIMURIUM, Strain/Indicator: TA98(1,8-DNP6), Metabolic Activation: HAMSTER, LIVER, S-9, Method: PREINCUBATION) was “active; positive”, the mutagenic call (Test System: AMES SALMONELLA TYPHIMURIUM, Strain/Indicator: TA98(1,8-DNP6), Metabolic Activation: NONE, Method: PREINCUBATION) was “active; positive” and the mutagenic call (Test System: AMES SALMONELLA TYPHIMURIUM, Strain/Indicator: TA98(1,8-DNP6), Metabolic Activation: NONE, Method: STANDARD PLATE) was “active; positive”. The mutagenic call (Test System: AMES SALMONELLA TYPHIMURIUM, Strain/Indicator: TA98(1,8-DNP6), Metabolic Activation: S-9, Method: STANDARD PLATE) was “active; positive”, the mutagenic call (Test System: AMES SALMONELLA TYPHIMURIUM, Strain/Indicator: TA98, Metabolic Activation: HAMSTER, LIVER, S-9, Method: PREINCUBATION) was “active; positive” and the mutagenic call [4] was “active; positive”. The mutagenic call [5] was “active; positive”, the mutagenic call [6] was “active; positive” and the mutagenic call [1] was “inactive; negative”. For the same compound, the mutagenic call [8] was “active; positive”.
